# Experimental data reported in patent publication US9051310B2, “Nicotinamide derivative or salt thereof” (FUJIFILM Corporation, priority 2011, dated 2015).
# Molecular target: T1, glutathione S-transferase (GST)-linked full-length human Syk protein (Homo sapiens, UniProt P43405)
# T1 construct: glutathione S-transferase (GST)-linked full-length human Syk protein; purchased Carna Biosciences; host or cells: Baculovirus expression system
# Experiment: Syk enzyme assay
# Assay type: biochemical
# Details: 0.83 nM Syk, time-resolved fluorescence; read-out: IC50 of Syk-inhibitory activity
# Protocol: A glutathione S-transferase (GST)-linked full-length human Syk protein (Carna Biosciences), which had been generated using a Baculovirus expression system, was used in the Syk enzyme assay.
# 7.5 μl of a reaction solution (0.83 nM Syk, 20 mM HEPES, 10 mM MgCl2, 50 mM NaCl, 2 mM DTT, 0.05% BSA, pH 7.0) containing a Syk protein and a predetermined concentration of a test compound was shaken for 2 minutes, and it was then left at rest at room temperature for 13 minutes. Thereafter, 0.5 μM substrate peptide (Biotin-[…]-NH2) and 5 μL of a solution containing 67.5 μM ATP were added to the reaction solution, and the obtained mixture was then shaken for 2 minutes. The reaction solution was further left at rest at room temperature for 40 minutes, so as to carry out an enzyme reaction.
# Thereafter, 50 μL of a reaction termination solution [60 nM APC-SA, 0.45 μg/mL Eu-PT66, 30 mM HEPES (pH 7.0), 150 mM KF, 30 mM EDTA, 0.15% BSA, 0.075% Tween20] containing Allophycocyanin-Streptavidin (APC-SA; PerkinElmer) and an Eu-W1024-labeled anti-phosphotyrosine PT66 antibody (Eu-PT66; PerkinElmer) was added to the reaction solution to terminate the enzyme reaction. At the same time, the reaction solution was left at rest at room temperature for 1 hour, so as to carry out an antigen-antibody reaction. Thereafter, using EnVision (PerkinElmer), the level of time-resolved fluorescence was measured at 615 nm and 665 nm, so that the phosphorylation of the substrate peptide was measured.
# The following are used in Table 5 to denote standards for evaluating IC50 of Syk-inhibitory activity. • A: Up to 10 nM • B: 10 to 50 nM • C: 50 to 100 nM
row,SMILES,IC50
1,"Cc1ncc(Nc2nc(N[C@@H]3CC[C@@H](OCc4ccccc4)C[C@@H]3N)c(F)cc2C(N)=O)cc1-n1nccn1 (racemic) [Example 2-528, Mixture of 6-((2-amino-4-(benzyloxy)cyclohexyl)amino)-5-fluoro-2-((6-methyl-5-(2H-1,2,3-triazol-2-yl)pyridin-3-yl)amino)nicotinamide (1R,2S,4R), (1S,2R,4S)]",50 to 100 nM
2,"Cc1nn(-c2cncc(Nc3nc(N[C@H]4CCCC[C@H]4N)c(F)cc3C(N)=O)c2)nc1C (stereo in doubt) [Example 2-533, 6-(((1S,2R)-2-aminocyclohexyl)amino)-2-((5-(4,5-dimethyl-2H-1,2,3-triazol-2-yl)pyridin-3-yl)amino)-5-fluoronicotinamide]",50 to 100 nM
3,"C[C@H](N)[C@H](Nc1nc(Nc2ccc(F)c(F)c2)c(C(N)=O)cc1F)C1CCC1 [Example 2-61, 6-(((1R,2S)-2-amino-1-cyclobutylpropyl)amino)-2-((3,4-difluorophenyl)amino)-5-fluoronicotinamide]",10 to 50 nM
4,"COc1ncc(Nc2nc(N[C@H](C3CC3)[C@H](C)N)c(F)cc2C(N)=O)cc1F [Example 2-62, 6-(((1R,2S)-2-amino-1-cyclopropylpropyl)amino)-5-fluoro-2-((5-fluoro-6-methoxypyridin-3-yl)amino)nicotinamide.]",10 to 50 nM
5,"COc1ncc(Nc2nc(N[C@H](C3CCC3)[C@H](C)N)c(F)cc2C(N)=O)cc1F [Example 2-63, 6-(((1R,2S)-2-amino-1-cyclobutylpropyl)amino)-5-fluoro-2-((5-fluoro-6-methoxypyridin-3-yl)amino)nicotinamide.]",10 to 50 nM
6,"CC[C@@H](Nc1nc(Nc2cnc(OC)c(F)c2)c(C(N)=O)cc1F)[C@H](C)N [Example 2-64, 6-(((2S,3R)-2-aminopentan-3-yl)amino)-5-fluoro-2-((5-fluoro-6-methoxypyridin-3-yl)amino)nicotinamide]",10 to 50 nM
7,"CCC[C@@H](Nc1nc(Nc2cnc(OC)c(F)c2)c(C(N)=O)cc1F)[C@H](C)N [Example 2-65, 6-(((2S,3R)-2-aminohexan-3-yl)amino)-5-fluoro-2-((5-fluoro-6-methoxypyridin-3-yl)amino)nicotinamide]",10 to 50 nM
8,"NC(=O)c1cc(F)c(N[C@@H]2CCCC[C@@H]2N)nc1Nc1cnc(-n2ccnn2)c(F)c1 [Example 2-68, 6-(((1R,2S)-2-aminocyclohexyl)amino)-5-fluoro-2-((5-fluoro-6-(1H-1,2,3-triazol-1-yl)pyridin-3-yl)amino)nicotinamide]",10 to 50 nM
9,"COc1nn(C)c2ccc(Nc3nc(N[C@H](C(C)C)[C@H](C)N)c(F)cc3C(N)=O)cc12 [Example 2-81, 6-(((2S,3R)-2-amino-4-methylpentan-3-yl)amino)-5-fluoro-2-((3-methoxy-1-methyl-1H-indazol-5-yl)amino)nicotinamide]",10 to 50 nM
10,"CCCC[C@@H](Nc1nc(Nc2ccc3c(c2)c(N(C)C)nn3C)c(C(N)=O)cc1F)[C@H](C)N [Example 2-90, 6-(((2S,3R)-2-aminoheptan-3-yl)amino)-2-((3-(dimethylamino)-1-methyl-1H-indazol-5-yl)amino)-5-fluoronicotinamide]",10 to 50 nM
11,"CC[C@H](N)[C@@H](CC)Nc1nc(Nc2ccc3c(c2)c(N(C)C)nn3C)c(C(N)=O)cc1F [Example 2-92, 6-(((3R,4S)-4-aminohexan-3-yl)amino) 2-((3-(dimethylamino)-1-methyl-1H-indazol-5-yl)amino)-5-fluoronicotinamide]",10 to 50 nM

# The remaining lines, values ahead:
row,IC50,SMILES
1,10 to 50 nM,"Cc1ncc(Nc2nc(NC3[C@@H](OCc4ccccc4)CCC[C@@H]3N)c(F)cc2C(N)=O)cc1-n1nccn1 (mixture of isomers) [Example 2-484, Mixture of 6-((2-amino-6-(benzyloxy)cyclohexyl)amino)-5-fluoro-2-((6-methyl-5-(2H-1,2,3-triazol-2-yl)pyridin-3-yl)amino)nicotinamide (1S,2S,6S),(1R,2R,6R)]"
2,10 to 50 nM,"Cc1ncc(Nc2nc(N[C@@H]3CC[C@@H](O)C[C@@H]3N)c(F)cc2C(N)=O)cc1-n1nccn1 (racemic) [Example 2-531, Mixture of 6-((2-amino-4-hydroxycyclohexyl)amino)-5-fluoro-2-((6-methyl-5-(2H-1,2,3-triazol-2-yl)pyridin-3-yl)amino)nicotinamide (1R,2S,4R), (1S,2R,4S)]"
3,10 to 50 nM,"Cc1ncc(Nc2nc(N[C@@H]3CCC(F)(F)C[C@@H]3N)c(F)cc2C(N)=O)cc1-n1nccn1 (racemic) [Example 2-564, Mixture of 6-((2-amino-4,4-difluorocyclohexyl)amino)-5-fluoro-2-((6-methyl-5-(2H-1,2,3-triazol-2-yl)pyridin-3-yl)amino)nicotinamide (1R,2S), (1S,2R)]"
4,< 10 nM,"CC(C)C[C@@H](Nc1nc(Nc2ccc3c(c2)c(N(C)C)nn3C)c(C(N)=O)cc1F)[C@H](C)N [Example 2-3, 6-(((2S,3R)-2-amino-5-methylhexan-3-yl)amino)-2-((3-(dimethylamino)-1-methyl-1H-indazol-5-yl)amino)-5-fluoronicotinamide]"
5,< 10 nM,"CC(C)C[C@@H](Nc1nc(Nc2cccc3c2cnn3C)c(C(N)=O)cc1F)[C@H](C)N [Example 2-12, 6-(((2S,3R)-2-amino-5-methylhexan-3-yl)amino)-5-fluoro-2-((1-methyl-1H-indazol-4-yl)amino)nicotinamide]"
6,10 to 50 nM,"C[C@H](N)[C@@H](CC1CC1)Nc1nc(Nc2ccc3nn(C)c(N(C)C)c3c2)c(C(N)=O)cc1F [Example 2-14, 6-(((2R,3S)-3-amino-1-cyclopropylbutan-2-yl)amino)-2-((3-(dimethylamino)-2-methyl-2H-indazol-5-yl)amino)-5-fluoronicotinamide]"
7,< 10 nM,"CC(C)C[C@@H](Nc1nc(Nc2ccc3nn(C)c(N(C)C)c3c2)c(C(N)=O)cc1F)[C@H](C)N [Example 2-15, 6-(((2S,3R)-2-amino-5-methylhexan-3-yl)amino)-2-((3-(dimethylamino)-2-methyl-2H-indazol-5-yl)amino)-5-fluoronicotinamide]"
8,10 to 50 nM,"CC[C@@H](Nc1nc(Nc2ccc3nn(C)c(N(C)C)c3c2)c(C(N)=O)cc1F)[C@H](C)N [Example 2-16, 6-(((2S,3R)-2-aminopentan-3-yl)amino)-2-((3-(dimethylamino)-2-methyl-2H-indazol-5-yl)amino)-5-fluoronicotinamide]"
9,< 10 nM,"COc1cc(Nc2nc(N[C@H](C3CCC3)[C@H](C)N)c(F)cc2C(N)=O)ccc1C [Example 2-30, 6-(((1R,2S)-2-amino-1-cyclobutylpropyl)amino)-5-Fluoro-2-((3-methoxy-4-methylphenyl)amino)nicotinamide]"
10,10 to 50 nM,"CC[C@@H](Nc1nc(Nc2ccnc(OCCOC)c2)c(C(N)=O)cc1F)[C@H](C)N [Example 2-34, 6-(((2S,3R)-2-aminopentan-3-yl)amino)-5-fluoro-2-((2-(2-methoxyethoxy)pyridin-4-yl)amino)nicotinamide]"
11,10 to 50 nM,"CC[C@H](N)[C@@H](C)Nc1nc(Nc2cnc(C)c(C)c2)c(C(N)=O)cc1F [Example 2-35, 6-(((2R,3S)-3-aminopentan-2-yl)amino)-2-((5,6-dimethylpyridin-3-yl)amino)-5-fluoronicotinamide]"
12,< 10 nM,"COc1nn(CC(F)F)c2ccc(Nc3nc(N[C@H](CC4CC4)[C@H](C)N)c(F)cc3C(N)=O)cc12 [Example 2-53, 6-(((2R,3S)-3-amino-1-cyclopropylbutan-2-yl)amino)-2-((1-(2,2-difluoroethyl)-3-methoxy-1H-indazol-5-yl)amino)-5-fluoronicotinamide]"
13,< 10 nM,"CC[C@@H](Nc1nc(Nc2ccc3c(c2)c(OC)nn3CC(F)F)c(C(N)=O)cc1F)[C@H](C)N [Example 2-55, 6-(((2S,3R)-2-aminopentan-3-yl)amino)-2-((1-(2,2-difluoroethyl)-3-methoxy-1H-indazol-5-yl)amino)-5-fluoronicotinainide]"
14,10 to 50 nM,"C[C@H](N)[C@H](Nc1nc(Nc2ccc(F)c(F)c2)c(C(N)=O)cc1F)C1CC1 [Example 2-59, 6-(((1R,2S)-2-amino-1-cyclopropylpropyl)amino)-2-((3,4-difluorophenyl)amino)-5-fluoronicotinamide]"
15,10 to 50 nM,"C[C@H](N)[C@H](Nc1nc(Nc2ccc(F)cc2)c(C(N)=O)cc1F)C1CCC1 [Example 2-60, 6-(((1R,2S)-2-amino-1-cyclobutylpropyl)amino)-5-fluoro-2-((4-fluorophenyl)amino)nicotinamide]"
16,< 10 nM,"CC(C)C[C@H](CN)Nc1nc(Nc2ccc3c(c2)c(N(C)C)nn3C)c(C(N)=O)cc1F [Example 2-86, (R)-6-((1-amino-4-methylpentan-2-yl)amino)-2-((3-(dimethylamino)-1-methyl-1H-indazol-5-yl)amino)-5-fluoronicotinamide]"
